This note sets out measurements from patent publication US20230106769A1, “SERUM-FREE MEDIUM AND CULTURING METHOD SUITED FOR CULTURING BLOOD CELLS SUCH AS HUMAN HEMATOPOIETIC STEM CELLS” (The University of Tokyo, priority 2020, published 2023).

Data set [1] relates to human hematopoietic stem cells. The experiment in a line: Culture of human hematopoietic stem cells with AKTa or PI3Ka. It is filed as cell-based. Conditions: 0.3 μM AKTa or 20 μM PI3Ka; PVA, no albumin, SCF 10 ng/mL, TPO 100 ng/mL. How it is done:
Then, human hematopoietic stem cells were cultured in a culture medium supplemented with 0.3 μM AKTa (Sigma-Aldrich, product No. 123871) or 20 μM PI3Ka. Cells were counted after 3, 5, and 7 days of incubation, and the relative cell count at each time point was calculated while the cell count on the first day of incubation was set to 1. In the following Examples, 740Y-P (Provider name: Tocris, product No. 1983) was used as PI3Ka.

The subject of data set [2] is Bone marrow cell samples from CML (chronic myelogenous leukemia) patients. The data set is described as follows: Culture of chronic myelogenous leukemia (CML) cells with or without imatinib. It is filed as cell-based, human. Conditions: one week; 0.1% PVA, 20 μM PI3Ka, 0.1 μM TPOago. The procedure: Bone marrow cell samples from CML (chronic myelogenous leukemia) patients were each cultured for one week under albumin-free and cytokine-free culture conditions. The culture medium used was a basal medium containing 0.1% PVA, 20 μM PI3Ka, and 0.1 μM TPOago. The culturing was performed in the presence or absence of an inhibitor (imatinib (IM)) of Bcr-Abl, the gene responsible for CML.

Data set [3] concerns human bone marrow CD34+ cells or cord blood CD34+ cells. The experiment in a line: 14-day culture in PI3Ka and TPOago medium with SR-1 and/or UM171. It is filed as cell-based. The procedure: Prepared was the above culture medium for human hematopoietic stem cells, which medium contained 20 μM PI3Ka and 0.1 μM TPOago instead of SCF and TPO (PI3Ka20μM+TPOago0.1 μM), or which medium contained SR-1 (500 nM) and/or UM171 (35 nM) (+SR-1, +UM171, or +SR-1+UM171). […] The total cell count and the CD34^+ cell count were determined as above on day 14 after the start of culture, and the growth rate relative to that at the start of culture was determined.
Prepared was the above culture medium for human hematopoietic stem cells, which medium contained 20 μM PI3Ka and 0.1 μM TPOago instead of SCF and TPO (PI3Ka20μM+TPO0.1μM), or which medium contained SR-1 (500nM) and/or UM171 (35 nM) (+SR-1, +UM171, or +SR-1+UM171). […] The total cell count and the CD34^+ cell count were determined as above on day 14 after the start of culture, and the growth rate relative to that at the start of culture was determined.

Data set [4] has as its system CD34+ cells. The experiment in a line: 14-day culture of CD34+ cells under conditions 1 to 3. It is filed as cell-based, human. The procedure:
Further, the growth rate of the total cell count or the CD34^+ cell count was determined by culturing the CD34^+ cells under three conditions: condition 1: cultured for 14 days in the culture medium for human hematopoietic stem cells above, which medium contained 20 μM PI3Ka and 0.1 μM TPOago instead of SCF and TPO (PI3Ka20μM+TPOago0.1μM), condition 2: at day 7 or later, cultured in a medium without butyzamide (Day7—no Buty), and condition 3: cultured for 14 days in a medium (PI3Ka20μM+TPOago0.1μM) further containing UM171 (+UM171). The CD41^+ cell count was determined using a flow cytometer.

The next data set relates to Mp132D cells. The experiment in a line: Replacement of TPO by TPO receptor agonists, Mp132D cells. It is filed as cell-based, human. As to conditions: 0.1 μM butyzamide, 3 μg/mL eltrombopag, 3 μM avatrombopag; for proliferation in the absence of TPO: in the presence of 0.1% recombinant human serum albumin; for cell proliferative effect in the absence of TPO: in the presence of PVA, absence of albumin. The procedure:
Next, human hematopoietic stem cells were cultured to examine whether TPO could be replaced by a TPO receptor agonist. Examples of the known TPO receptor agonist include butyzamide, eltrombopag, or avatrombopag. Human hematopoietic stem cells were cultured in a medium containing 0.1 μM butyzamide, 3 μg/mL eltrombopag, or 3 μM avatrombopag in the presence of 0.1% recombinant human serum albumin (Albumin Biosciences) or in the presence of PVA in the above culture medium without TPO. In this experiment, Mp132D cells were used as human hematopoietic stem cells.
Next, human hematopoietic stem cells were cultured to examine whether TPO could be replaced by a TPO receptor agonist. Examples of the known TPO receptor agonists include butyzamide, eltrombopag, or avatrombopag. Human hematopoietic stem cells were cultured in a medium containing 0.1 μM butyzamide, 3 μg/mL eltrombopag, or 3 μM avatrombopag in the presence of 0.1% recombinant human serum albumin (Albumin Biosciences) or in the presence of PVA in the above culture medium without TPO. In this experiment, Mp132D cells were used as human hematopoietic stem cells.

In data set [5] the test system is human bone marrow CD34+ cells or cord blood CD34+ cells. As to conditions: absence of albumin, presence of PVA; TPO replaced by agonist. How it is done:
In addition, purchased human bone marrow CD34^+ cells (provider name: Lonza, product No. 2C-101) or CD34^+ cells isolated using microbeads from given fresh cord blood were used for culture experiments. the experiments were performed in 24-well plates at 0.2 to 1.0×10^5 cells per well, with TPO removed from the culture medium for human hematopoietic stem cells and replaced by one of the above TPO receptor agonists (hereinafter, sometimes referred to as “TPOago”). The cell count on the seventh day of culture relative to the cell count on the first day of culture was determined.
In addition, purchased human bone marrow CD34^+ cells (provider name: Lonza, product No. 2C-101) or CD34^+ cells isolated using microbeads from given fresh cord blood were used for culture experiments. Experiments were performed in 24-well plates with 0.2 to 1.0×10^5 cells per well, with TPO removed from the culture medium for human hematopoietic stem cells and replaced by one of the above TPO receptor agonists (hereinafter, sometimes referred to as “TPOago”). The cell count on the seventh day of culture relative to the cell count on the first day of culture was determined.

For data set [6] the test system is unchanged. The data set is described as follows: Culture with PI3Ka and TPO or butyzamide, growth rate at day 7. It is filed as cell-based. Conditions: 20 μM PI3Ka, 0.1 μM butyzamide vs TPO 100 ng/mL, PVA, no albumin. The procedure:
(§1) In the following Examples, butyzamide was used as a TPO receptor agonist. […] After 7 days, the total number of cells was determined and the number of CD34^+ cells was determined by flow cytometry. Thereafter, the growth rate compared to that at the beginning of the incubation was determined. […] In addition, CD34^+ cells were sorted before and after incubation by using a cell sorter, and 100 cells were seeded into Methocult H4415 for colony assay. After two weeks, each colony was picked under a microscope, a cytospin sample was prepared, and the sample was subjected to Giemsa staining. The type of the colony was then identified under a microscope. GEmM colonies per 50 CD34^+ cells were counted and a rate of increase in the number of colonies compared to before the culture was determined.

Data set [7] relates to CD34+ cells. The data set is described as follows: GEmM colony assay (Methocult H4415) after culture with PI3Ka and TPO or butyzamide. It is filed as cell-based, human. Conditions: GEmM colonies per 50 CD34+ cells; after 7-day culture; 0.1 μM butyzamide vs TPO. How it is done:
as §1

The test system of data set [8] is human hematopoietic stem cells. The data set is described as follows: Culture with PI3Ka and/or TPOago in medium without SCF or TPO. It is filed as cell-based. As to conditions: day 7; 20 μM PI3Ka and/or 0.1 μM TPOago; no SCF, no TPO; PVA. How it is done:
Next, human hematopoietic stem cells were cultured in a medium containing 20 μM PI3Ka and/or 0.1 μM TPOago with reference to a culture medium without SCF or TPO. On day 7 of culture, the number of total cells and the number of CD34^+ cells included were counted by flow cytometry, and the growth rate relative to that at the start of culture was determined.

Data set [9] relates to human hematopoietic stem cells. The data set is described as follows: Replacement of SCF by PI3Ka, 7-day culture. It is filed as cell-based. As to conditions: day 7; 20 μM PI3Ka, TPO 100 ng/mL, PVA, no albumin. How it is done: Next, human hematopoietic stem cells were cultured to examine whether PI3Ka could completely replace SCF. Human hematopoietic stem cells were cultured for 7 days in the above culture medium for human hematopoietic stem cells with 20 μM PI3Ka (S10+PI3Ka20+T100) or in the above culture medium with 20 μM PI3Ka but without SCF (PI3Ka20+T100). The total number of cells and the number of isolated CD34^+ cells as obtained by cell sorting using an anti-CD34 antibody were then determined.

Where [10] appears, read: day 14, condition 2 compared to condition 1, condition 3 (+UM171) compared to condition 1 or 2.

In the case of `CCOC(=O)C1=C(N)Oc2ccc(Cl)cc2C1C(C#N)C(=O)OCC` (stereo not drawn) [AKTa], the “relative cell count (proliferation) after 3, 5 and 7 days” value in data set [1] is reported as “no proliferative effect”.

For the compound `Cc1ccc(NC(=O)c2ccc(CN3CCN(C)CC3)cc2)cc1Nc1nccc(-c2cccnc2)n1` [IM, imatinib], in data set [2], the “cell expansion in the presence of IM” value was “no significant cell expansion”.

As for `CC(C)n1cnc2c(NCCc3ccc(O)cc3)nc(-c3csc4ccccc34)nc21` [SR-1], in [3] (SR-1 500 nM in PI3Ka20μM+TPOago0.1μM medium, PVA, no albumin), the cell death result is listed as “caused cell death”.

With `Cn1nnc(-c2ccc3c(c2)[nH]c2nc(Cc4ccccc4)nc(NC4CCC(N)CC4)c23)n1` (stereo not drawn) [UM171, 4-N-[2-benzyl-7-(2-methyltetrazol-5-yl)-9H-pyrimid[4,5-b]indol-4-yl]cyclohexane-1,4-diamine], in data set [3] (day 14, UM171 35 nM), the “growth rate of CD34+ cells, medium containing UM171 vs medium without” value is listed as “significantly larger”. The “total cell count and CD34+ cell count” value in data set [3] (day 14, UM171 35 nM added to PI3Ka20μM+TPOago0.1μM medium) is recorded as “increased”. In the data set with CD34+ cells [4] (setting [10]), the “CD34+ cell count / growth rate of CD34+ cells” value was “markedly increased” and the “CD41+ cell count” value is “markedly decreased”. For the same compound, the “differentiation into megakaryocyte progenitors and megakaryocytes” value in the data set on CD34+ cells [4] (serum-free medium with PVA, PI3Ka and TPOago) is reported as “inhibited”.

As for `O=C(Nc1nc(-c2cc(Cl)cs2)c(N2CCN(C3CCCCC3)CC2)s1)c1cnc(N2CCC(C(=O)O)CC2)c(Cl)c1` [avatrombopag], in the data set with Mp132D cells, the “proliferation in the absence of TPO” value is reported as “able to support proliferation” and the “cell proliferative effect in the absence of TPO” value was “small”.

Regarding `CCCOC(c1cccc(-c2csc(NC(=O)c3cc(Cl)c(C=C(C)C(=O)O)c(Cl)c3)n2)c1OC)C(C)(C)C` (stereo not drawn) [butyzamide, 3-[4-[[[4-[2-methoxy-3-(1-tert-butyl-2-oxapentan-1-yl)phenyl]thiazol-2-yl]amino]carbonyl]-2,6-dichlorophenyl]-2-methylpropenoic acid], in the data set on Mp132D cells, the “proliferation in the absence of TPO” value is reported as “able to support proliferation” and the “cell proliferative effect in the absence of TPO” value is “marked cell proliferative effect”. Also, the “cell count on the seventh day relative to the first day (proliferation)” value in [5] is given as “significant cell proliferation”. Also, the “growth rate of total cells and CD34+ cells, replacement of TPO” value in data set [6] is recorded as “can completely replace TPO”. The “GEmM colony formation potential, replacement of TPO” value with CD34+ cells [7] is “can completely replace TPO”. In addition, in [8], the “growth rate (total cells and CD34+ cells) relative to start of culture” value is “no increase in the cell count”.

In the case of `CC1=NN(c2ccc(C)c(C)c2)C(=O)/C1=N\Nc1cccc(-c2cccc(C(=O)O)c2)c1O` [eltrombopag], the “cell death (cytotoxicity) in hematopoietic stem cells” value in data set [5] is recorded as “caused cell death”.

“RQIKIWFQNRRMKWKKSDGGYMDMS [PI3Ka, Tocris, product No. 1983]”: the “relative cell count (proliferation) after 3, 5 and 7 days” value in data set [1] is on record as “marked proliferation”. The “difference in number of total cells or CD34+ cells with or without SCF” value in data set [9] is on record as “no significant difference”. In data set [8], the “growth rate (total cells and CD34+ cells) relative to start of culture” value is on record as “no increase in the cell count”.

On to “SCF: stem cell factor, hematopoietic cell growth factor”, for which the “difference in number of total cells or CD34+ cells with or without SCF” value in data set [9] is given as “no statistically significant difference”.
